In patent US12422437B2, “Methods of screening for condensate-associated specificity and uses thereof” (Dewpoint Therapeutics, Inc., priority 2019, dated 2025):

Assays:
Format in all cases: cell-based, human
[1] = test system: stress granules (FUS, eIF3, G3BP1) in HeLa Kyoto, HeLa BAC FUS-GFP and iPS FUS-GFP cells; test: Screen for compounds altering FUS, eIF3 and G3BP1 levels in stress granules of arsenate-stressed cells (Example 1); conditions: compound 1 μM, 5 μM or 25 μM for one hour, then 2 mM Potassium Arsenate 1 hour; confocal fluorescence imaging; FIGS. 1-4
Description: Stress granules are condensates that form in the cytoplasm of cells under stress. Multiple proteins are known to be concentrated in stress granules, including FUS, eukaryotic initiation factor 3 (eIF3), and G3BP1. FUS is involved in pre-mRNA maturation, and various mutations in FUS have been associated with ALS. Although FUS is found in stress granules, it is not believed to be critical for formation of stress granules. Like FUS, eIF3 is also not believed to be critical for formation of stress granules. As the name indicates, eIF3 is a eukaryotic initiation factor, but it is also involved in translational recycling. By contrast, G3BP1 is believed to initiate formation of stress granules and is potentially critical to maintaining their structure. G3BP1 is an RNA binding protein and an element of the Ras signaling transduction pathway. These three proteins were tracked within cells to determine if compounds could preferentially exclude one of these proteins from stress granules without dissolving the stress granule.
(§1) Three cell lines (HeLa Kyoto, HeLa comprising a bacterial artificial chromosome (BAC) encoding FUS-GFP, and induced pluripotent stem cells (iPS) expressing FUS-GFP) were separately grown in culture. 1200 compounds from a compound library were exposed individually at concentrations of 1 μM, 5 μM, or 25 μM to one of the cell lines for one hour. For some compounds, this procedure was repeated for one or both of the other cell lines. Cells that were not exposed to the compounds (DMSO-only vehicle treatment) were used as controls. The cells were then exposed to arsenate stress for 1 hour to stimulate the formation of stress granules, using a final concentration of 2 mM Potassium Arsenate (Sigma A6631, diluted in PBS).
(§2) After stress treatment, the cells were fixed with a final concentration of 3.7% Formaldehyde (FA) for 15 minutes at room temperature. Subsequently, cells were washed using a plate washer, permeabilized (10 min at RT using 0.1% Triton X/PBS) and blocked (30 min with 0.2% Fish skin gelatin/PBS). For cells expressing FUS-GFP, GFP fluorescence was observed directly. For the other protein markers of interest a combination of anti-FUS (Sigma AMAb90549; 1:500), anti-eIF3 (Santa Cruz sc-137214; 1:500), and anti-G3BP1 (Invitrogen PA5-29455; 1:4000) antibodies and appropriate secondary antibodies (Life Technologies; Alexa 594 and 647) was applied to visualize FUS, eIF3, and G3BP1 protein in the cells.
(§3) A spinning disk confocal microscope was used to acquire images of the samples using confocal fluorescence at 405/488/561/640 nm. 40× air objective lenses were used to capture the images. The gain was set to 1.4 and binning to 1. The exposure times were adjusted to the fluorescence emission intensity specific for each label. Exposure times ranged from 100-300 ms. Appropriate filter settings were used, matching the excitation and emission spectra of the label. Image acquisition was automated, and the resulting data were analyzed using KNIME (Berthold et al., 2008, Data Analysis, Machine Learning and Applications. Studies in Classification, Data Analysis, and Knowledge Organization. Springer, Berlin, Heidelberg) and CellProfiler (Carpenter et al., 2006, Genome Biol 7:R100). Twenty-five imaging parameters were extracted for each image, including marker signal droplet count, area, shape, etc. For each imaging parameter, the Z′ factor for the entire plate was calculated according to the following formula: Z′=1−[3*(SD(pos)+SD(neg))/(Avg(pos)−Avg(neg))] where SD(pos) is the standard deviation of the positive control, SD(neg) is the standard deviation of the negative control, Avg(pos) is the average of the positive control and Avg(neg) is the average of the negative control.
In addition, z-scores were calculated for every test compound using the formula: z=(x−x)/S where x is the mean of the sample, and S is the standard deviation of the sample. […] Results

[2] = test system: stress granules (FUS, eIF3, G3BP1) in HeLa Kyoto, HeLa BAC FUS-GFP and iPS FUS-GFP cells; test: Screen for macromolecule and tissue specificity on stress granules of arsenate-stressed cells (Example 2); conditions: compound 1 μM, 5 μM or 25 μM for one hour, then 2 mM Potassium Arsenate 1 hour; confocal fluorescence imaging; FIGS. 5-10
Protocol: as §1, with “In brief, three” for “Three”, “lines. […]” for “lines.”
as §2
as §3, with “40× (primary screen) and 20× (potency testing)” for “40×”, “Heidelberg),” for “Heidelberg) and”, “7:R100); or, for potency testing, data were analyzed using Harmony (PerkinElmer, Waltham MA) and Vault (Collaborative Drug Discovery, Burlingame CA).” for “7:R100).”
In addition, z-scores were calculated for every test compound using the formula: z=(x−x)/S where x is the mean of the sample, and S is the standard deviation of the sample.

[3] = test system: stress granules of stressed HeLa cells carrying BAC FUS-GFP; test: Dose-response / potency testing for FUS, eIF3 and G3BP1 in stress granules (FIG. 11); conditions: 0.0021-30 μM, number of cytoplasmic drops per cell, four parameter logistic fit
Description: FIG. 11 is a plot of dose-response curves for FUS, eIF3, and G3BP1 in stress granules of stressed HeLa cells carrying BAC FUS-GFP treated with YM155.
The methods used in this example were similar to those discussed in Example 1. In brief, three cell lines (HeLa Kyoto, HeLa comprising a bacterial artificial chromosome (BAC) encoding FUS-GFP, and induced pluripotent stem cells (iPS) expressing FUS-GFP) were separately grown in culture. 1200 compounds from a compound library were exposed individually at concentrations of 1 μM, 5 μM, or 25 μM to one of the cell lines for one hour. For some compounds, this procedure was repeated for one or both of the other cell lines. […]
A spinning disk confocal microscope was used to acquire images of the samples using confocal fluorescence at 405/488/561/640 nm. […] The exposure times were adjusted to the fluorescence emission intensity specific for each label. […] Image acquisition was automated, and the resulting data were analyzed using KNIME (Berthold et al., 2008, Data Analysis, Machine Learning and Applications. Studies in Classification, Data Analysis, and Knowledge Organization. Springer, Berlin, Heidelberg), CellProfiler (Carpenter et al., 2006, Genome Biol 7:R100); or, for potency testing, data were analyzed using Harmony (PerkinElmer, Waltham MA) and Vault (Collaborative Drug Discovery, Burlingame CA). […]

SMILES | Selective and Non-Selective Condensate Disrupters (selectivity of exclusion of FUS, eIF3, G3BP1 from stress granules) [1] | Selectivity (Selective and Non-Selective Condensate Disrupters) [2] | potency (similar to IC50) for exclusion of a specific protein from stress granules relative to others [3]
COc1cc(N2CCC(N)CC2)ccc1Nc1ncc(Cl)c(-c2c[nH]c3ccccc23)n1 [AZD3463] | FUS-selective |  | 
COc1cc(CCc2cc(NC(=O)c3ccc(N4C[C@@H](C)N[C@@H](C)C4)cc3)n[nH]2)cc(OC)c1 [AZD4547] | Non-selective |  | 
CNC(=O)CN1CCC(Oc2cc3c(Nc4cccc(Cl)c4F)ncnc3cc2OC)CC1 [AZD8931] | eIF3-selective |  | 
CC1(C)CCC2=C(O1)c1ccccc1C(=O)C2=O [Beta-Lapachone] | eIF3-selective | eIF3-selective | 
Cn1cc(C2=C(c3cn(CCCSC(=N)N)c4ccccc34)C(=O)NC2=O)c2ccccc21 [Bisindolylmaleimide IX] |  | eIF3-selective | 
C[C@H]1CCC/C=C/[C@@H]2C[C@H](O)C[C@H]2[C@H](O)/C=C/C(=O)O1 [Brefeldin A] | FUS-selective |  | 
COc1cc2c(Oc3ccc4[nH]c(C)cc4c3F)ncnc2cc1OCCCN1CCCC1 [Cediranib] |  | eIF3 and FUS- selective | 
Cc1cc2cc3ccc(N(C)C)cc3nc2cc1N [Coriphosphine O] |  | FUS-selective | 
O=C(O)CCc1ccc(NCc2cccc(Oc3ccccc3)c2)cc1 [GW9508] | FUS-selective |  | 
O=C(c1ccc(F)cc1)C1CCN(CCn2c(=O)[nH]c3ccccc3c2=O)CC1 [Ketanserin] | FUS-selective |  | 
NC(=O)CCCCC1CCSS1 (stereo not drawn) [Lipoamide] | Non-selective | Non-selective | 
Cc1ccc(NC(=O)c2ccc(CN3CCN(C)CC3)cc2)cc1Nc1nc(-c2cccnc2)cs1 [Masitinib] |  | FUS protein and iPSC cell selective | 
COc1ncc(-c2ccc3nccc(-c4ccnnc4)c3c2)cc1NS(=O)(=O)c1ccc(F)cc1F [Omipalisib] | Non-selective |  | 
COc1ccc(-c2cc3c(C)nc(N)nc3n(C3CCC(OCCO)CC3)c2=O)cn1 (stereo not drawn) [PF-04691502] |  | Non-selective | 
Cc1cnc(Nc2ccc(N3CCN(C)CC3)cc2)nc1Nc1cccc(S(=O)(=O)NC(C)(C)C)c1 [TG101209] | Non-selective | Non-selective | 
COCCn1c2c([n+](Cc3cnccn3)c1C)C(=O)c1ccccc1C2=O.[Br-] [YM155 (Sepantronium Bromide), Sepantronium Bromide] | eIF3-selective | eIF3-selective | exclusion of eIF3 at lower concentration of compound relative to FUS and G3BP1
